From patent US20120244122A1, “Peptides for the Treatment of HCV Infections” (priority 2009, published 2012)
Read-outs that look alike come from different tables or passages of the source.

Assays:
[1] = Metabolic stability in human liver microsomes; format: in vitro ADME; conditions: for half-life at 0.25 μM: human, in vitro half-life, 0.5 mg/mL HLM, 0.25 μM test compound, 2 mM NADPH, pH 7.4, 37° C., 0-30 minutes; for % Difference: [(deuterated species) − (nondeuterated species)](100)/(nondeuterated species), t1/2 in HLM vs boceprevir
Description: Human liver microsomes (20 mg/mL) were obtained from Xenotech, LLC (Lenexa, Kans.). β-Nicotinamide adenine dinucleotide phosphate, reduced form (NADPH), magnesium chloride (MgCl2), and dimethyl sulfoxide (DMSO) were purchased from Sigma-Aldrich.
7.5 mM stock solutions of Compounds 103, 109, 130, 134, 154, 157 and 158, as well as boceprevir, were prepared in DMSO. The 7.5 mM stock solutions were diluted to 12.5 μM in acetonitrile (ACN). The 20 mg/mL human liver microsomes were diluted to 0.625 mg/mL in 0.1 M potassium phosphate buffer, pH 7.4, containing 3 mM MgCl2. The diluted microsomes (375 μL) were added to wells of a 96-well deep-well polypropylene plate in triplicate. 10 μL of the 12.5 μM test compound was added to the microsomes and the mixture was pre-warmed for 10 minutes. Reactions were initiated by addition of 125 μL of pre-warmed NADPH solution. The final reaction volume was 0.5 mL and contained 0.5 mg/mL human liver microsomes, 0.25 μM test compound, and 2 mM NADPH in 0.1 M potassium phosphate buffer, pH 7.4, and 3 mM MgCl2. The reaction mixtures were incubated at 37° C., and 50 μL aliquots were removed at 0, 5, 10, 20, and 30 minutes and added to shallow-well 96-well plates which contained 50 μL of ice-cold ACN with internal standard to stop the reactions. The plates were stored at 4° C. for 20 minutes after which 100 μl of water was added to the wells of the plate before centrifugation to pellet precipitated proteins. Supernatants were transferred to another 96-well plate and analyzed for amounts of parent remaining by LC-MS/MS using an Applied Bio-systems API 4000 mass spectrometer. 7-ethoxycoumarin (1 μM) was used as the positive control substrate.
The in vitro half-lives (t1/2s) for test compounds are calculated from the slopes of the linear regression of % parent remaining (ln) vs incubation time relationship using the following formula:
in vitro t1/2=0.693/k, where k=−[slope of linear regression of % parent remaining(ln) vs incubation time]
Data analysis is performed using Microsoft Excel Software.
The experiment was repeated four separate times.

hepatitis C virus (HCV) = conditions: treatment-naïve patients, boceprevir combined with peginterferon alpha-2b and ribavirin, cited from earlier work
[2] = patients with hepatitis C; adverse events infrequent (headache, fever, myalgia); cited from earlier work

What does the source list for `CC(C)(C)NC(=O)NC(C(=O)N1CC2C(C1C(=O)NC(CC1CCC1)C(=O)C(N)=O)C2(C)C)C(C)(C)C` (stereo not drawn) [Boceprevir, N-(4-amino-1-cyclobutyl-3,4-dioxobutan-2-yl)-3-(2-(3-tert-butylureido)-3,3-dimethylbutanoyl)-6,6-dimethyl-3-azabicyclo[3.1.0]hexane-2-carboxamide]?
half-life at 0.25 μM ([1]; human liver microsomes): 19 min; sustained viral response (SVR) rates (hepatitis C virus (HCV); after 12 weeks): 66-74%; sustained viral response (SVR) rates (hepatitis C virus (HCV); after 24 weeks): 55-56%; tolerability [2]: well-tolerated

For `[2H]C([2H])([2H])C1(C([2H])([2H])[2H])[C@@H]2[C@@H](C(=O)NC(CC3CCC3)C(=O)C(N)=O)N(C(=O)[C@@H](NC(=O)NC(C([2H])([2H])[2H])(C([2H])([2H])[2H])C([2H])([2H])[2H])C(C([2H])([2H])[2H])(C([2H])([2H])[2H])C([2H])([2H])[2H])C[C@@H]21` (stereo partly drawn) [Compound 103, (1R,2S,5S)—N-(4-Amino-1-(cyclobutyl)-3,4-dioxobutan-2-yl)-3-((S)-2-(3-tert-butyl-d9-ureido)-3,3-di(methyl-d3)-4,4,4-d3-butanoyl)-6,6-di(methyl-d3)-3-azabicyclo[3.1.0]hexane-2-carboxamide], which “% Difference” value [1] is on record?
Its value is 32.0%.

What about the half-life at 0.25 μM ([1]; human liver microsomes) of the same compound?
Its half-life at 0.25 μM is 25 min.

With `[2H]C([2H])([2H])C(NC(=O)N[C@H](C(=O)N1C[C@H]2[C@@H]([C@H]1C(=O)NC(CC1CCC1)C(=O)C(N)=O)C2(C)C)C(C([2H])([2H])[2H])(C([2H])([2H])[2H])C([2H])([2H])[2H])(C([2H])([2H])[2H])C([2H])([2H])[2H]` (stereo partly drawn) [Compound 109, (1R,2S,5S)—N-(4-Amino-1-cyclobutyl-3,4-dioxobutan-2-yl)-6,6-dimethyl-3-((S)-4,4,4-(methyl-d3)-2-(3-(1,1,1,3,3,3-di(methyl-d3)-2-(methyl-d3)propan-2-yl)ureido)-3,3-di(methyl-d3)butanoyl)-3-azabicyclo[3.1.0]hexane-2-carboxamide] as the compound, how does the “% Difference” value [1] read?
Its value is 21.8%.

And the half-life at 0.25 μM ([1]; human liver microsomes)?
The half-life at 0.25 μM was 23.2 min.

What does the source list for `[2H]C([2H])([2H])C1(C([2H])([2H])[2H])[C@@H]2[C@@H](C(=O)NC(C(=O)C(N)=O)C([2H])([2H])C3([2H])C([2H])([2H])C([2H])([2H])C3([2H])[2H])N(C(=O)[C@@H](NC(=O)NC(C)(C)C)C(C)(C)C)C[C@@H]21` (stereo partly drawn) [Compound 130, (1R,2S,5S)—N-(4-Amino-1-(cyclobutyl-d7)-1,1-d2-3,4-dioxobutan-2-yl)-3-((S)-2-(3-tert-butylureido)-3,3-dimethylbutanoyl)-6,6-di(methyl-d3)-3-azabicyclo[3.1.0]hexane-2-carboxamide]?
% Difference [1]: 65.3%; half-life at 0.25 μM ([1]; human liver microsomes): 31.4 min

With `[2H]C([2H])([2H])C1(C([2H])([2H])[2H])[C@@H]2[C@@H](C(=O)NC(CC3CCC3)C(=O)C(N)=O)N(C(=O)[C@@H](NC(=O)NC(C)(C)C)C(C)(C)C)C[C@@H]21` (stereo partly drawn) [Compound 134, (1R,2S,5S)—N-(4-Amino-1-cyclobutyl-3,4-dioxobutan-2-yl)-3-((S)-2-(3-tert-butylureido)-3,3-dimethylbutanoyl)-6,6-di(methyl-d3)-3-azabicyclo[3.1.0]hexane-2-carboxamide] as the compound, how does the “% Difference” value [1] read?
The value was 7.9%.

What about the half-life at 0.25 μM ([1]; microsomes) of the same compound?
The half-life at 0.25 μM was 19.1 min.

Which “% Difference” value [1] does the source give for `[2H]C([2H])(C(NC(=O)[C@@H]1[C@@H]2[C@H](CN1C(=O)[C@@H](NC(=O)NC(C)(C)C)C(C)(C)C)C2(C)C)C(=O)C(N)=O)C1([2H])C([2H])([2H])C([2H])([2H])C1([2H])[2H]` (stereo partly drawn) [Compound 154, (1R,2S,5S)—N-(4-Amino-1-(cyclobutyl-d7)-1,1-d2-3,4-dioxobutan-2-yl)-3-((S)-2-(3-tert-butylureido)-3,3-dimethylbutanoyl)-6,6-dimethyl-3-azabicyclo[3.1.0]hexane-2-carboxamide] here?
The value was 51.4%.

And the half-life at 0.25 μM ([1]; human liver microsomes)?
Its half-life at 0.25 μM is 28.7 min.

With `[2H]C1([2H])C([2H])([2H])C([2H])(CC(NC(=O)[C@@H]2[C@@H]3[C@H](CN2C(=O)[C@@H](NC(=O)NC(C)(C)C)C(C)(C)C)C3(C)C)C(=O)C(N)=O)C1([2H])[2H]` (stereo partly drawn) [Compound 157, (1R,2S,5S)—N-(4-Amino-1-(cyclobutyl-d7)-3,4-dioxobutan-2-yl)-3-((S)-2-(3-tert-butylureido)-3,3-dimethylbutanoyl)-6,6-dimethyl-3-azabicyclo[3.1.0]hexane-2-carboxamide] as the compound, how does the “% Difference” value [1] read?
Its value is 39.9%.

And the half-life at 0.25 μM ([1]; human liver microsomes)?
The half-life at 0.25 μM was 26.6 min.

Which “% Difference” value [1] does the source give for `[2H]C([2H])([2H])C1(C([2H])([2H])[2H])[C@@H]2[C@@H](C(=O)NC(C(=O)C(N)=O)C([2H])([2H])C3([2H])C([2H])([2H])C([2H])([2H])C3([2H])[2H])N(C(=O)[C@@H](NC(=O)NC(C([2H])([2H])[2H])(C([2H])([2H])[2H])C([2H])([2H])[2H])C(C([2H])([2H])[2H])(C([2H])([2H])[2H])C([2H])([2H])[2H])C[C@@H]21` (stereo partly drawn) [Compound 158, (1R,2S,5S)—N-(4-Amino-1-(cyclobutyl-d7)-1,1-d2-3,4-dioxobutan-2-yl)-3-((S)-2-(3-(tert-butyl-d9)ureido)-3,3-di(methyl-d3)-4,4,4-d3-butanoyl)-6,6-di(methyl-d3)-3-azabicyclo[3.1.0]hexane-2-carboxamide] here?
The value was 96.3%.

What about the half-life at 0.25 μM ([1]; human liver microsomes) of the same compound?
The half-life at 0.25 μM was 37.2 min.
